Measurements as given in patent US8945832B2, “Treatment prediction involving HMGCR” (Atlas Antibodies AB, priority 2008, dated 2015).
Where two headings read alike, the source gives them in different places.

Key:
[1] = tested on: MCF-7 breast cancer cells; conditions: MCF-7 cells; cited from earlier work
breast cancer [2] = conditions: patients with ER positive tumors, irrespective of lymph node status; five years adjuvant; cited from earlier work
breast cancer [3] = conditions: 5 years tamoxifen compared to no adjuvant treatment; cited from earlier work
primary breast tumors = assay: Gene expression analysis of breast cancer: RFS by HMGCR mRNA level in tamoxifen treated patients (GSE 9893); type: in vivo, human
Source text: Data was collected from a previously performed microarray study, Chanrion et al, based on a patient cohort of 155 primary breast tumors obtained from patients who had undergone initial surgery between 1989 and 2001 at the Cancer Research Center of Val d'Aurelle in Montpellier, the Bergonie' Institute in Bordeaux, or the Department of Obstetrics and Gynecology of Turin.
The median follow-up time for all patients was 5.5 years. Eight tumors were ER negative, and six of these tumors were progesterone receptor (PR) positive. No patient received neoadjuvant systemic chemotherapy. […] 121 patients also received adjuvant radiotherapy. Raw gene expression data and clinical data were downloaded from Gene Expression Omnibus (http://www.ncbi.nlm.nih.gov/GEO/) (accession number GSE 9893). The log ratio of gene expression values was used without further transformation. For statistical analysis HMGCR mRNA expression levels were analysed as a continuous variable.

[4] = tested on: stage II invasive breast cancer; assay: Randomized premenopausal cohort: recurrence free survival, adjuvant tamoxifen vs no adjuvant endocrine treatment, by HMGCR protein status (IHC on TMA); type: in vivo, human; conditions: for outcome (RFS) of HMGCR positive and ER negative vs HMGCR negative and ER positive patients: tamoxifen treated cohort
Method: The inclusion criteria were pre-menopausal patients, or patients younger than 50 years, with stage II (pT2 N0 M0, pT1-2 N1 M0) invasive breast cancer treated by modified mastectomy or breast conserving surgery with axillary lymph node dissection. Post-operative radiotherapy (50 Gy) was administered after breastconserving surgery and all lymph node-positive patients received locoregional radiotherapy. […] The study design is described in detail elsewhere (Rydén L et al, Eur J Cancer, 2005, 41(2): 256-64). Ethical permission was obtained from the Local Ethics Committees at Lund and Linköping Universities.
Tissue blocks from 500 of the 564 patients could be retrieved for TMA-construction. All cases had been histopathologically re-evaluated on hematoxylin and eosin stained slides. TMA:s were constructed by sampling 2×0.6 mm cores per case from areas representative of invasive cancer, using an manual arraying device (MTA-1, Beecher Inc, WI, USA). […] IHC staining of ER and PR had been performed previously. In line with current clinical praxis, a cut-off at 10% positive nuclei was used to define hormone receptor positivity.
For statistical analyses, the cytoplasmic intensity (CI) level was evaluated, in line with what is described in Examples, Section 3 above. […] Two categories were defined: “HMGCR high” corresponding to CI=weak, moderate and strong and “HMGCR low” corresponding to CI=absent This classification of samples was used for RFS analysis according to the Kaplan-Meier estimator, and the log-rank test was used to compare survival in different strata. ER and PR negativity was defined as <10% positively staining nuclei, according to current clinical guidelines in Sweden. All statistical tests were two-sided, and p-values of <0.05 were considered significant. All calculations were made with the statistical package SPSS 17.0 (SPSS Inc. Illinois, USA).

breast cancer [5] = conditions: cited from earlier work
breast cancer [6] = conditions: cited from earlier work; remark: listed apart in the source
breast cancer [7] = conditions: cited from earlier work; remark: listed apart in the source

CC[C@H](C)C(=O)O[C@H]1CCC=C2C=C[C@H](C)[C@H](CC[C@@H]3C[C@@H](O)CC(=O)O3)[C@H]21 [mevastatin]
induction of HMGCR activity [1]: 10- to 15 fold | induction of HMGCR mRNA expression [1]: 2.5- to 3.5 fold

CC/C(=C(\c1ccccc1)c1ccc(OCCN(C)C)cc1)c1ccccc1 [tamoxifen]
breast cancer mortality (breast cancer [2]): reduces the breast cancer mortality | reduction in breast cancer specific mortality (breast cancer [3]): 34% | reduction in disease recurrence (breast cancer [3]): 41% | RFS of high vs low HMGCR mRNA expression (primary breast tumors; ER positive subjects only, adjuvant tamoxifen, FIG. 13b): improved RFS | RFS of high vs low HMGCR mRNA expression (primary breast tumors; all 155 patients, adjuvant tamoxifen 20 mg daily for 5 years, FIG. 13a): significantly better RFS | RFS of HMGCR high vs HMGCR low category ([4]; ER positive tamoxifen treated subjects, FIG. 2a): significantly better RFS | effect of tamoxifen treatment on recurrence free survival ([4]; HMGCR negative and ER negative subjects, FIG. 10b): no positive effect | effect of tamoxifen treatment on recurrence free survival ([4]; HMGCR positive and ER negative subjects, FIG. 9a): improved survival | effect of tamoxifen treatment on recurrence free survival ([4]; HMGCR positive and ER negative, lymph node positive patients, FIG. 9b): further enhanced | tamoxifen impact on survival (RFS) ([4]; HMGCR positive and PR negative subjects, FIG. 12, not statistically significant): trend of tamoxifen impact on survival | effect of tamoxifen treatment on recurrence free survival ([4]; HMGCR positive or ER positive subjects, FIG. 10a): significantly positive effect | response to tamoxifen treatment (RFS) ([4]; PR negative and HMGCR negative subjects, FIG. 11b): no response | response to tamoxifen treatment (RFS) ([4]; PR positive and HMGCR positive subjects, FIG. 11a): significant response | RFS associated with HMGCR expression ([4]; lymph node positive patients who received tamoxifen, FIG. 4a, p=0.001): improved RFS | outcome (RFS) of HMGCR positive and ER negative vs HMGCR negative and ER positive patients ([4]; node positive subjects, FIG. 6a): better outcome | RFS of HMGCR high vs HMGCR low category ([4]; patients treated with tamoxifen, FIG. 1a, p=0.001): significantly better RFS | effect of tamoxifen treatment on recurrence free survival ([4]; patients with HMGCR high tumors, irrespective of ER status, tamoxifen vs no adjuvant endocrine treatment, FIG. 8a): significantly improved survival | effect of tamoxifen treatment on recurrence free survival ([4]; patients with HMGCR low tumors, irrespective of ER status, FIG. 8b): no impact on survival | effect of HMGCR level on RFS ([4]; tamoxifen treated ER negative subjects, FIG. 7a): positive effect on RFS | outcome (RFS) of HMGCR positive and ER negative vs HMGCR negative and ER positive patients ([4]; FIG. 3a): better outcome | disease free survival, tamoxifen vs no adjuvant treatment (breast cancer [5]; older patients (≧60 years) with ERα+/PR+ tumors): significantly longer disease free survival | disease free survival, tamoxifen vs no adjuvant treatment (breast cancer [5]; younger patients (<60 years)): no significant effect | ERα positive patients who do not respond to tamoxifen treatment (breast cancer [6]): 30-40% | recurrence-free and overall survival in tamoxifen treated patients (breast cancer [7]; high expression (>75% nuclear fraction) of PR, irrespectively of ERα status): increased recurrence-free and overall survival | effect from tamoxifen treatment (breast cancer [7]; lower PR level, <75%): no positive effect
